Measurements published in paper PMC12377202, “Design, synthesis, and cytotoxic evaluation of quinazoline-based derivatives as VEGER-2 inhibitors: comparative study against EGFR kinase activity, induction of apoptosis, and molecular docking study” (RSC Advances, 2025).

Tests used:
[1] = tested on: HepG-2 cells; experiment: Cell cycle analysis (PI staining, flow cytometry); format: cell-based, human
Description: In order to cause cytotoxicity, anticancer medicines must stop cell division at specific checkpoints, which are discrete stages of the cell cycle.
Propidium iodide (PI) staining and flow cytometry analysis[74,75] were used to analyze the cell cycle for derivatives 8a and 9a, as illustrated in the SI.
(§1) through Flow cytometric analysis.
(§2) Pellets were collected again and incubated with
(§3) Total RNA from vehicle-treated
(§4) (Thermo Scientific, USA).
(§5) All experiments were performed in […]

[2] = target: VEGFR-2 (Homo sapiens, UniProt P35968); experiment: In vitro VEGFR-2 inhibitory assay (ELISA kit); details: VEGFR-2 kinase
Sequence of VEGFR-2 (P35968 20-1356): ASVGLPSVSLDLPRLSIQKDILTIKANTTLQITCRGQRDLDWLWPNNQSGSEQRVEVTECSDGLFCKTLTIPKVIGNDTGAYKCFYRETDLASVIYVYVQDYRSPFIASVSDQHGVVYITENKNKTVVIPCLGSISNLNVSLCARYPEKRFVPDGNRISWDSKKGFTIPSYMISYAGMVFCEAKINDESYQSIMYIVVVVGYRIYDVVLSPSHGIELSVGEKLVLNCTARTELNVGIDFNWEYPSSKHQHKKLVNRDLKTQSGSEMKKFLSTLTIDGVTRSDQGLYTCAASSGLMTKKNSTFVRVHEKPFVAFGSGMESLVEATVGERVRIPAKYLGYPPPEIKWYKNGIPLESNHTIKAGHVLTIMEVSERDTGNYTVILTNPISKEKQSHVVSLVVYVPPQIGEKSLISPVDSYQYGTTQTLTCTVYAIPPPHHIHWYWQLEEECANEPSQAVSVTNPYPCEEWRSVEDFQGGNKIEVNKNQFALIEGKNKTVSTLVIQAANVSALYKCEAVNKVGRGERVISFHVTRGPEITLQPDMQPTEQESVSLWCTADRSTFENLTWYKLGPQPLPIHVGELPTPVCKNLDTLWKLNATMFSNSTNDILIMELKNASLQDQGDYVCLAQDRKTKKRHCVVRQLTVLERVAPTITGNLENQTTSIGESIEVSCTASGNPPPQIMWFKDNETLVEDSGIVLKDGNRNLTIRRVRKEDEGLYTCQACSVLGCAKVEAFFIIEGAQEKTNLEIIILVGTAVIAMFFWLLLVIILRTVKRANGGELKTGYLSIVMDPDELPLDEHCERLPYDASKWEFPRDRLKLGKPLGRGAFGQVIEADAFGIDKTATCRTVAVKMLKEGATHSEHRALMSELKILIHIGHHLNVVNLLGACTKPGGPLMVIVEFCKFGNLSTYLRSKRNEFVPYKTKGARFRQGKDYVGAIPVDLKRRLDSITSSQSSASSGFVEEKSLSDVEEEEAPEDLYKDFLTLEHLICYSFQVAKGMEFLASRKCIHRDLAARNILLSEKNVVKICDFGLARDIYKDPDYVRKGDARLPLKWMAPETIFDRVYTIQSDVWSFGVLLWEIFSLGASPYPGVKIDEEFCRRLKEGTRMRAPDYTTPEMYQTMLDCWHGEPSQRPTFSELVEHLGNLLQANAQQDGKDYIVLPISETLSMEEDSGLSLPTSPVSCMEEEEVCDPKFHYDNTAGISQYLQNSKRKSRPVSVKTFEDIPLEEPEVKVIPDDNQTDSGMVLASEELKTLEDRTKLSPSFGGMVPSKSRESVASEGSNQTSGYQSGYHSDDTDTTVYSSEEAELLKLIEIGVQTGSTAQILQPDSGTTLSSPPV

[3] = tested on: caspase-9; experiment: Caspase-9 expression level in HepG-2 cells; format: cell-based, human; details: for Caspase-9 ± SE: HepG-2, at IC50 concentrations, control 11.01
Description: (§6) All synthesized compounds were tested at their cytotoxic concentrations in HepG-2 cells for analysis of gene expression levels of apoptotic markers caspase-3, caspase-9, TNF-α, and IL-6 proteins, and only two active compounds were tested for BAX and Bcl-2 proteins.
as §1, §2, §3, §4, §5

[4] = tested on: TNF-alpha; experiment: TNF-alpha level in HepG-2 cells; format: cell-based, human; details: control 43.48
Description: as §6, §1, §2, §3, §4, §5

[5] = tested on: MCF-7; experiment: MTT anti-proliferative assay, MCF-7; format: cell-based, human; details: Homo sapiens, MCF7
[6] = tested on: K-562; experiment: MTT anti-proliferative assay, K-562; format: cell-based, human; details: Homo sapiens, K562
[7] = tested on: HepG-2; experiment: MTT anti-proliferative assay, HepG-2; format: cell-based, human; details: Homo sapiens, HepG2
[8] = tested on: HEK-293; experiment: MTT cytotoxicity against normal cells; format: cell-based, human
[9] = MTT cytotoxicity against normal cells; format: cell-based, human; details: human
[10] = tested on: caspase-3; experiment: Caspase-3 expression level in HepG-2 cells; format: cell-based, human; details: for Caspase-3 ± SE: HepG-2, at IC50 concentrations, control 0.460
Description: as §6, §1, §2, §3, §4, §5

[11] = target: EGFR (Homo sapiens, UniProt P00533); experiment: EGFR kinase inhibition assay (ELISA kit)
Sequence of EGFR (P00533 25-1210): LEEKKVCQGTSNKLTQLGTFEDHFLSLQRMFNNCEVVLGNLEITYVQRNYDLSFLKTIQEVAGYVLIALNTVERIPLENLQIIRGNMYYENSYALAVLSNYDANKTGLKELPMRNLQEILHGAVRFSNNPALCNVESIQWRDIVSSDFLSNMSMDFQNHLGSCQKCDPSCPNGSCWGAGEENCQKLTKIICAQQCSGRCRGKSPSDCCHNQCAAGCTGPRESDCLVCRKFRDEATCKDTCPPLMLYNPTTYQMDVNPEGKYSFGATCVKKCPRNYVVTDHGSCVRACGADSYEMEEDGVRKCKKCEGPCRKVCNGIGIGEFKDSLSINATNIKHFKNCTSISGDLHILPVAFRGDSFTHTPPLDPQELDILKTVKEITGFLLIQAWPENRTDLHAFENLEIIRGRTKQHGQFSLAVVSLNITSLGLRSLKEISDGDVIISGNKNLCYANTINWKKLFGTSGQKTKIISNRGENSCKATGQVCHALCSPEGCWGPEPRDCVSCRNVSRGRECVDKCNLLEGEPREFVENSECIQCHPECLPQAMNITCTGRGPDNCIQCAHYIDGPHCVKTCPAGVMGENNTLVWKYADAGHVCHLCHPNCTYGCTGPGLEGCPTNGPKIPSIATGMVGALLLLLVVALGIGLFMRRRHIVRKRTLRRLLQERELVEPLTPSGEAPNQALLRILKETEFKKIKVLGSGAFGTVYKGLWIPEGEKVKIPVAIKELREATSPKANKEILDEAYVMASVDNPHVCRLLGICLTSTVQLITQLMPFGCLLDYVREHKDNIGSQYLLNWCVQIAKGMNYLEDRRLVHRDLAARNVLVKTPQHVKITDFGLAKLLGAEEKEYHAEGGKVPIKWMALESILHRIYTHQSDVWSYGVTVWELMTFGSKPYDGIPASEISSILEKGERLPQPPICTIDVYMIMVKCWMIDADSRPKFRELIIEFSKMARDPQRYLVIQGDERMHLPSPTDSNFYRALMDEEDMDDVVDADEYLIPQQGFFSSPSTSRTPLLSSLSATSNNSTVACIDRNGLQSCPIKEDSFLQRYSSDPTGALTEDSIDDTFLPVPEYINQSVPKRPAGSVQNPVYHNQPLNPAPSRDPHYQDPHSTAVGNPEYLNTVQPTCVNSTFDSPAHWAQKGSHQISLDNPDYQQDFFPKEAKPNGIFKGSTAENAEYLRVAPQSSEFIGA

[12] = tested on: IL-6R; experiment: IL-6R level in HepG-2 cells; format: cell-based, human
Description: as §6, §1, §2, §3, §4, §5

O=C(Cn1cnc2cc([N+](=O)[O-])ccc2c1=O)Nc1ccccc1Cl [9b, N-(2-Chlorophenyl)-2-(7-nitro-4-oxoquinazolin-3(4H)-yl)acetamide]
% Sub-G1 ([1]; HepG-2, cytotoxic concentration, 24 h, control 68.12): 94.68% | % S ([1]; HepG-2, control 2.23): 0.19% | % G2/M ([1]; HepG-2, control 6.52): 0.24% | % G1 ([1]; HepG-2, control 23.14): 4.89% | Activity % ([2]; HepG2): 33.564% | Inhibition % ([2]; HepG2): 66.436% | Activity % ([2]; K-562): 56.948% | Inhibition % ([2]; K-562): 43.052% | Activity % ([2]; MCF7): 80.680% | Inhibition % ([2]; MCF7): 19.320% | Caspase-9 ± SE [3]: 7.31 ± 0.93 ng/L | Caspase-9 ± SE ([3]; listed as N5): 7.31 ng/L | caspase-9 expression level, fold increase ([3]; HepG-2, vs control cells): no apoptotic effect | TNF-alpha ±SE ([4]; HepG-2, at IC50 concentrations): 27.34 ± 1.95 ng/L | TNF-alpha ±SE ([4]; raw data, HepG2): 14.37 ng/L | viability at 0.195 µmol ([5]; MCF-7, 0.195 umol): 52.1% | cytotoxicity at 0.195 µmol ([5]; MCF-7, 0.195 umol, read-out: Toxicity %): 47.9% | viability at 0.391 µmol ([5]; MCF-7, 0.391 umol): 22.7% | cytotoxicity at 0.391 µmol ([5]; MCF-7, 0.391 umol, read-out: Toxicity %): 77.3% | viability at 0.781 µmol ([5]; MCF-7, 0.781 umol): 15.6% | cytotoxicity at 0.781 µmol ([5]; MCF-7, 0.781 umol, read-out: Toxicity %): 84.4% | viability at 1.563 µmol ([5]; MCF-7, 1.563 umol): 11.9% | cytotoxicity at 1.563 µmol ([5]; MCF-7, 1.563 umol, read-out: Toxicity %): 88.1% | viability at 3.125 µmol ([5]; MCF-7, 3.125 umol): 9.45% | cytotoxicity at 3.125 µmol ([5]; MCF-7, 3.125 umol, read-out: Toxicity %): 90.5% | viability at 6.25 µmol ([5]; MCF-7, 6.25 umol): 8% | cytotoxicity at 6.25 µmol ([5]; MCF-7, 6.25 umol, read-out: Toxicity %): 92% | viability at 12.5 µmol ([5]; MCF-7, 12.5 umol): 7.26% | cytotoxicity at 12.5 µmol ([5]; MCF-7, 12.5 umol, read-out: Toxicity %): 92.7% | viability at 25 µmol ([5]; MCF-7, 25 umol): 6.77% | cytotoxicity at 25 µmol ([5]; MCF-7, 25 umol, read-out: Toxicity %): 93.2% | IC50 ([5]; MTT, MCF-7, read-out: Cytotoxicity against cancer cells IC50 MCF-7): 209 ± 3.7 nM | viability at 0.195 µmol ([6]; K-562, 0.195 umol): 47.5% | cytotoxicity at 0.195 µmol ([6]; K-562, 0.195 umol, read-out: Toxicity %): 52.5% | viability at 0.391 µmol ([6]; K-562, 0.391 umol): 37.8% | cytotoxicity at 0.391 µmol ([6]; K-562, 0.391 umol, read-out: Toxicity %): 62.2% | viability at 0.781 µmol ([6]; K-562, 0.781 umol): 25.5% | cytotoxicity at 0.781 µmol ([6]; K-562, 0.781 umol, read-out: Toxicity %): 74.5% | viability at 1.563 µmol ([6]; K-562, 1.563 umol): 13.6% | cytotoxicity at 1.563 µmol ([6]; K-562, 1.563 umol, read-out: Toxicity %): 86.4% | viability at 3.125 µmol ([6]; K-562, 3.125 umol): 8.05% | cytotoxicity at 3.125 µmol ([6]; K-562, 3.125 umol, read-out: Toxicity %): 92% | viability at 6.25 µmol ([6]; K-562, 6.25 umol): 8.5% | cytotoxicity at 6.25 µmol ([6]; K-562, 6.25 umol, read-out: Toxicity %): 91.5% | viability at 12.5 µmol ([6]; K-562, 12.5 umol): 6.86% | cytotoxicity at 12.5 µmol ([6]; K-562, 12.5 umol, read-out: Toxicity %): 93.1% | viability at 25 µmol ([6]; K-562, 25 umol): 6.2% | cytotoxicity at 25 µmol ([6]; K-562, 25 umol, read-out: Toxicity %): 93.8% | IC50 ([6]; MTT, K-562, read-out: Cytotoxicity against cancer cells IC50 K-562): 190 ± 3.7 nM | viability at 0.195 µg/mL ([7]; HepG-2, 0.195 ug/ml): 49.7% | cytotoxicity at 0.195 µg/mL ([7]; HepG-2, 0.195 ug/ml, read-out: Toxicity %): 50.3% | viability at 0.391 µg/mL ([7]; HepG-2, 0.391 ug/ml): 37.3% | cytotoxicity at 0.391 µg/mL ([7]; HepG-2, 0.391 ug/ml, read-out: Toxicity %): 62.7% | viability at 0.781 µg/mL ([7]; HepG-2, 0.781 ug/ml): 27.7% | cytotoxicity at 0.781 µg/mL ([7]; HepG-2, 0.781 ug/ml, read-out: Toxicity %): 72.3% | viability at 1.563 µg/mL ([7]; HepG-2, 1.563 ug/ml): 13% | cytotoxicity at 1.563 µg/mL ([7]; HepG-2, 1.563 ug/ml, read-out: Toxicity %): 87% | viability at 3.125 µg/mL ([7]; HepG-2, 3.125 ug/ml): 9.93% | cytotoxicity at 3.125 µg/mL ([7]; HepG-2, 3.125 ug/ml, read-out: Toxicity %): 90.1% | viability at 6.25 µg/mL ([7]; HepG-2, 6.25 ug/ml): 7.8% | cytotoxicity at 6.25 µg/mL ([7]; HepG-2, 6.25 ug/ml, read-out: Toxicity %): 92.2% | viability at 12.5 µg/mL ([7]; HepG-2, 12.5 ug/ml): 6.7% | cytotoxicity at 12.5 µg/mL ([7]; HepG-2, 12.5 ug/ml, read-out: Toxicity %): 93.3% | viability at 25 µg/mL ([7]; HepG-2, 25 ug/ml): 5.93% | cytotoxicity at 25 µg/mL ([7]; HepG-2, 25 ug/ml, read-out: Toxicity %): 94.1% | IC50 ([7]; MTT, HepG-2, read-out: Cytotoxicity against cancer cells IC50 HepG-2): 194 ± 6.6 nM | Toxicity % ([8]; HEK-293, 0.195 umol/ml): 1.903% | Toxicity % ([8]; HEK-293, 0.391 umol/ml): 23.13% | Toxicity % ([8]; HEK-293, 0.781 umol/ml): 37.87% | Toxicity % ([8]; HEK-293, 1.563 umol/ml): 47.29% | Toxicity % ([8]; HEK-293, 3.125 umol/ml): 70.33% | Toxicity % ([8]; HEK-293, 6.25 umol/ml): 82.82% | Toxicity % ([8]; HEK-293, 12.5 umol/ml): 91.22% | Toxicity % ([8]; HEK-293, 25 umol/ml): 93.7% | selectivity, cancer cells vs normal human kidney cells (fold) ([8]; HEK-293 vs K-562): 9 fold | selectivity, cancer cells vs normal human kidney cells (fold) ([8]; HEK-293 vs MCF-7): 8.4 fold | IC50 ([8]; Homo sapiens, HEK293, raw data, HEK-293): 1750 nM | IC50 at 3 days ([9]; HEK-293 cells (normal human embryonic kidney cells), MTT, HEK-293, read-out: Cytotoxicity against normal cell IC50 HEK-293): 1747 ± 2.6 nM | viability at 3 days, 0.195 umol/ml ([9]; HEK-293 cells (normal human embryonic kidney), HEK-293, 0.195 umol/ml): 98.1% | viability at 3 days, 0.391 umol/ml ([9]; HEK-293 cells (normal human embryonic kidney), HEK-293, 0.391 umol/ml): 76.9% | viability at 3 days, 0.781 umol/ml ([9]; HEK-293 cells (normal human embryonic kidney), HEK-293, 0.781 umol/ml): 62.1% | viability at 3 days, 1.563 umol/ml ([9]; HEK-293 cells (normal human embryonic kidney), HEK-293, 1.563 umol/ml): 52.7% | viability at 3 days, 3.125 umol/ml ([9]; HEK-293 cells (normal human embryonic kidney), HEK-293, 3.125 umol/ml): 29.7% | viability at 3 days, 6.25 umol/ml ([9]; HEK-293 cells (normal human embryonic kidney), HEK-293, 6.25 umol/ml): 17.2% | viability at 3 days, 12.5 umol/ml ([9]; HEK-293 cells (normal human embryonic kidney), HEK-293, 12.5 umol/ml): 8.78% | viability at 3 days, 25 umol/ml ([9]; HEK-293 cells (normal human embryonic kidney), HEK-293, 25 umol/ml): 6.3% | Caspase-3 ± SE [10]: 1.08 ± 0.028 ng/mL | Caspase-3 ± SE ([10]; listed as N5): 1.08 ng/mL | caspase-3 expression level, fold increase ([10]; HepG-2, vs control cells): 2.35 fold | Activity % ([11]; HepG2): 52.262% | Inhibition % ([11]; HepG2): 47.738% | Activity % ([11]; K-562): 47.456% | Inhibition % ([11]; K-562): 52.544% | Activity % ([11]; MCF7): 25.292% | Inhibition % ([11]; MCF7): 74.708% | IL-6R ± SE ([12]; HepG-2, at IC50 concentrations, control 44.10): 28.78 ± 1.23 ng/L | IL-6R protein level ([12]; HepG-2, control 44.10%): 28.78 ng/L | IL-6 ±SE ([12]; raw data, HepG2, control 44.10): 19.54 ng/L
